Measurements taken from ChEMBL document CHEMBL1201862, “PubChem BioAssay data set” (2004).

What was measured:
NADPH oxidase 1 = molecular target: T1, NADPH oxidase 1 (Homo sapiens, UniProt Q9Y5S8); format: functional, cell-based;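 further: Cell-based assay with luminescence read-out, IC50 derived from inhibitor dose-response curves; intracellular ROS from endogenous NOX1 in intact HT29 colon cancer cells; potency of inhibitors that lower the ROS luminescence signal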
T1 sequence (Q9Y5S8 whole entry): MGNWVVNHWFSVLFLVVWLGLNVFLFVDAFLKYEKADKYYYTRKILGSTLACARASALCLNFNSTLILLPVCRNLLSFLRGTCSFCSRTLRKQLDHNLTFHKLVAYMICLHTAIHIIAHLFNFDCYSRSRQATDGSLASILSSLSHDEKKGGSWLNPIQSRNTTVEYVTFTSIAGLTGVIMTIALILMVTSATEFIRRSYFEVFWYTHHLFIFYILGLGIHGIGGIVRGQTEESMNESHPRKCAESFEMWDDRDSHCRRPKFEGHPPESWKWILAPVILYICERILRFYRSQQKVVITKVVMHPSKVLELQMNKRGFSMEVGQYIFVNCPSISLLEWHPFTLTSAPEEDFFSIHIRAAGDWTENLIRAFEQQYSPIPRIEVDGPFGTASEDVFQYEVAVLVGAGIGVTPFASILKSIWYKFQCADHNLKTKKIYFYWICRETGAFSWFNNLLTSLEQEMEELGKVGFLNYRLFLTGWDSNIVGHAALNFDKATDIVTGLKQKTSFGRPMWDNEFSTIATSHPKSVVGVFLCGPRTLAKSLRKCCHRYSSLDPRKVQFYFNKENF

[1] = Counterscreen for IDE inhibitors: Luminescence-based cell-based high throughput dose response assay to identify compounds that are cytotoxic to HEK cells. [Related pubchem assays: 434962 (Primary screen (IDE inhibitors in singlicate)), 449730 (Counterscreen (Cytotoxicity in triplicate)), 435028 (Confirmation (IDE inhibitors in triplicate)) …; format: functional; details: HEK293
Insulin-degrading enzyme = molecular target: T2, Insulin-degrading enzyme (Homo sapiens, UniProt P14735); assay: Dose Response: Fluorescence polarization-based cell-based high throughput dose response assay for inhibitors of insulin-degrading enzyme (IDE). [Related pubchem assays: 434962 (Primary screen (IDE inhibitors in singlicate)), 449730 (Counterscreen (Cytotoxicity in triplicate)), 435028 (Confirmation (IDE inhibitors in triplicate)), 434984 (Summary …; format: functional
T2 sequence (P14735 whole entry): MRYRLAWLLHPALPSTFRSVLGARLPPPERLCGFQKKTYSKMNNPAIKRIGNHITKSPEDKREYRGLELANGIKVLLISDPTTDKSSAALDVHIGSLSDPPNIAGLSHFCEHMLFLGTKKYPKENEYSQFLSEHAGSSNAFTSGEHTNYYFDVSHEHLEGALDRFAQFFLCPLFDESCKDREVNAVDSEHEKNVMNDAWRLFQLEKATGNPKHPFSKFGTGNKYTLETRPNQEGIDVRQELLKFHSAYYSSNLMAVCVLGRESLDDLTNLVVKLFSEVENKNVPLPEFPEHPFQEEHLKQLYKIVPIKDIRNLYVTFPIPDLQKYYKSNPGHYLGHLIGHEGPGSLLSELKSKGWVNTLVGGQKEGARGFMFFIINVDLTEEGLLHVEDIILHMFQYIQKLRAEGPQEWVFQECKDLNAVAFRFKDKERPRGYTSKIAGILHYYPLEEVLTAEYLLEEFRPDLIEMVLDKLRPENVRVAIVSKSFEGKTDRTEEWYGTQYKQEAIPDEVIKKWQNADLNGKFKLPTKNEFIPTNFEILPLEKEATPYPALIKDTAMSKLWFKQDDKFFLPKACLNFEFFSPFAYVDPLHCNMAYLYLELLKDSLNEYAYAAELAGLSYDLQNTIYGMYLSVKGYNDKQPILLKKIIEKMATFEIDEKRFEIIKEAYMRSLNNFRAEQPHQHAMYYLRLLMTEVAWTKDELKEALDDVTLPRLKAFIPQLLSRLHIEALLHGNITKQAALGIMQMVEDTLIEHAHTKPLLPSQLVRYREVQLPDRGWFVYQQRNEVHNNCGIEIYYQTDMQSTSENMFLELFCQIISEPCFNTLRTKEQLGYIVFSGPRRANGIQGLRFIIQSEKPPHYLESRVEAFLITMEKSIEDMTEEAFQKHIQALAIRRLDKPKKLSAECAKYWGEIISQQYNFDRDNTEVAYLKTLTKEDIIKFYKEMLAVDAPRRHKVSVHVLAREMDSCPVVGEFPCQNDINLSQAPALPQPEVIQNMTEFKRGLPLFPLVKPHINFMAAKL

Row | SMILES | IC50 (NADPH oxidase 1) | IC50 [1] | IC50 (Insulin-degrading enzyme)
1 | OCCN1CCN(CCCN2c3ccccc3Sc3ccc(C(F)(F)F)cc32)CC1 [FLUPHENAZINE] | > 17 µM (not active) |  | 
2 | Oc1sc(/C=N/c2ccc(F)cc2)c2ccccc12 |  | > 55.7 µM (not active) | > 55.9 µM (not active)
